US9957232B2, “4-[4-({[4-chloro-3-(trifluoromethyl)phenyl]carbamoyl}amino)-3-fluorophenoxy]-N-methylpyridine-2-carboxamide monohydrate” (BAYER HEALTHCARE LLC, priority 2006, dated 2018)

Assay: stability in the manufacture of pharmaceutical compositions
Assay type: physicochemical
Conditions: monohydrate form; qualitative statement, no test described

## CNC(=O)c1cc(Oc2ccc(NC(=O)Nc3ccc(Cl)c(C(F)(F)F)c3)c(F)c2)ccn1 [compound of the formula (II), 4-[4-({[4-chloro-3-(trifluoromethyl)phenyl]carbamoyl}amino)-3-fluorophenoxy]-N-methylpyridine-2-carboxamide monohydrate]
  stability in the manufacture of pharmaceutical compositions: high stability
